Test results from patent US7794967B2, “Method and kit for detection of novel pathogen inhibitors” (priority 2001, dated 2010).
Read-outs that look alike come from different tables or passages of the source.

Key:
RNase P RNA [1] = assay: Inhibition of RNase P RNA cleavage; assay type: biochemical, Escherichia coli; conditions: value without asterisk; read-out: appKi inhibition of RNase P RNA cleavage
Description: The structure of some aminoglycosides that inhibit RNase P cleavage are depicted in FIG. 3. Aminoglycosides bind to RNA and displace functionally important divalent metal ions. Thus, aminoglycosides function as metal mimics (Mikkelsen et al., 2001).
RNase P cleavage and Pb2+-induced cleavage was performed and monitored according to standard protocols as described by Kufel and Kirsebom (1998). To determine the appKi value for a given substance RNase P cleavage or Pb2+-induced cleavage conditions were adjusted in such a way that measurements were carried out in the linear portion of the curve of kinetics of the cleavage reaction.

[2] = target: 31-mer RNA representing the P15-loop of RNase P RNA; assay: Inhibition of Pb2+-induced cleavage of the 31-mer model RNA (P15-loop); assay type: binding, Escherichia coli; conditions: aminoglycoside concentration that gives 50% inhibition of Pb2+-induced cleavage; read-out: appKi 31-mer RNA
[3] = target: Escherichia coli Klenow polymerase (pol) (Escherichia coli, UniProt P00582, D355A/E357A); assay: Inhibition of Klenow polymerase activity
[4] = target: T1, mammalian poly(A)-specific ribonuclease (PARN) (Bos taurus, UniProt P69341); assay: Inhibition of PARN deadenylation activity; assay type: biochemical, calf thymus; conditions: for IC50: appKi = aminoglycoside concentration resulting in 50% inhibition of PARN activity, pH 7.0
T1 sequence (P69341 1-430 limits assumed): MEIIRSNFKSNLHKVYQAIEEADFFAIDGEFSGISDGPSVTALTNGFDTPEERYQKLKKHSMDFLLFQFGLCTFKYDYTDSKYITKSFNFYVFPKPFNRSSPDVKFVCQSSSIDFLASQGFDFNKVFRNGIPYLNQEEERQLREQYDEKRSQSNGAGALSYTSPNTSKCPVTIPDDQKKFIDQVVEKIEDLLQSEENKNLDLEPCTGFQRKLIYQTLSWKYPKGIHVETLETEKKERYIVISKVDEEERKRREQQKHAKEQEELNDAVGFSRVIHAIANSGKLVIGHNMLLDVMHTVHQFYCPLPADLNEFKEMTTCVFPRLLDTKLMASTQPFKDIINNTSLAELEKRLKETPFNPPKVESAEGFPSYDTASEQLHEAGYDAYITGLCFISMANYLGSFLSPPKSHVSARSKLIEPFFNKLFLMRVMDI
From the text: Homogeneously purified calf thymus PARN 54 kDa active fragment was used as the source of PARN (Martinez et al. 2000). Recombinant full length human PARN was expressed and purified as described (Martinez et al. 2000). As the substrate we used L3(A30) RNA radioactively labelled in its poly(Å) tail (Åström et al. 1991). Assay conditions and 1-D TLC quantitation procedures were as previously described (Åström et al. 1992). The pH of the deadenylation reactions were 7.0, unless stated otherwise. The consumption of L3(A30) RNA substrate was controlled so that no more than 20% of it was consumed.

PARN = target: T2, PARN (Homo sapiens, UniProt O95453); assay: Fe(II) mediated hydroxyl radical cleavage of PARN; assay type: binding
T2 construct: Recombinant full length human PARN was expressed and purified as described; made in house; host or cells: E. coli
T2 sequence (O95453 1-639): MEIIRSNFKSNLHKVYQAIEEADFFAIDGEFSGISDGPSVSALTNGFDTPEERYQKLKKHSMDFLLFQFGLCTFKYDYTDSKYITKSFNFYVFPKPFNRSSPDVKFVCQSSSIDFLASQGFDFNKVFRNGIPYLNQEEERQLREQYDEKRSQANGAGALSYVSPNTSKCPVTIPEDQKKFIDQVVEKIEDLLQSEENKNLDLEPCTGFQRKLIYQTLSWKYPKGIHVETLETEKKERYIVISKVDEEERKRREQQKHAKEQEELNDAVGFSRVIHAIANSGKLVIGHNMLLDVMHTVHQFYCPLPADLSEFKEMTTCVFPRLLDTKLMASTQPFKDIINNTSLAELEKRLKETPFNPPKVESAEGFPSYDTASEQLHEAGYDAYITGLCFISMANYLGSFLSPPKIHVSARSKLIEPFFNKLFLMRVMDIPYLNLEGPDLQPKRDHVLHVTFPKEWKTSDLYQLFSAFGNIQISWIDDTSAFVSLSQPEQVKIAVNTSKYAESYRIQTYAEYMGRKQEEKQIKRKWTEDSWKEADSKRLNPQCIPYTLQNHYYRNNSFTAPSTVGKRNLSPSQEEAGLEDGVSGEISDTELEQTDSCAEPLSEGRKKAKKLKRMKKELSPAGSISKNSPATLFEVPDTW
Description: Recombinant PARN polypeptides expressed in E. coli were purified and radioactively labelled in their N-termini. Fe(II) mediated hydroxyl radical cleavage, of PARN was essentially performed as described above. Reacted samples were subjected to 10% SDS-polyacrylamide gel electrophoresis and the resulting gel was subsequently visualized and quantified using a 400 S PhosphorImager (Molecular Dynamics). In the Mg(II) and Mn(II) ions competition experiments, MgCl2 or MnCl2 was added at indicated concentration in the presence of 20 micromolar Fe(NH4)2SO4.

Taq DNA polymerase = Taq DNA polymerase (Thermus aquaticus, UniProt P19821); assay: In vitro inhibition of Taq DNA polymerase; assay type: biochemical; conditions: addition of 0.1-5 mM neomycin B
From the text: (§1) The mechanisms behind toxicity and severe side-effects are not understood and several potential causes have been discussed in the literature.

[5] = target: mammalian poly(A) polymerase (Homo sapiens, UniProt P51003); assay: In vitro inhibition of mammalian poly(A) polymerase; assay type: biochemical; conditions: addition of 0.1-5 mM neomycin B
From the text: as §1

T7 RNA polymerase = T7 RNA polymerase (Escherichia phage T7, UniProt P00573); assay: In vitro inhibition of T7 RNA polymerase; assay type: biochemical; conditions: addition of 0.1-5 mM neomycin B
From the text: as §1

RNase P RNA [6] = conditions: values marked *, from Mikkelsen et al., 1999; read-out: appKi inhibition of RNase P RNA cleavage; cited from earlier work
[7] = target: T3, HIV reverse transcriptase (Human immunodeficiency virus type 1 group M subtype B, UniProt P04585); assay: In vitro inhibition of HIV reverse transcriptase; assay type: biochemical; conditions: addition of 0.1-5 mM neomycin B
T3 construct: HIV reverse transcriptase
From the text: as §1

[8] = system: Full-size E. coli RNase P RNA; conditions: Mikkelsen et al., 1999; cited from earlier work
bacterial RNase H = bacterial RNase H (Escherichia coli, UniProt P0A7Y4); assay: In vitro inhibition of bacterial RNase H; assay type: biochemical; conditions: addition of 0.1-5 mM neomycin B
From the text: as §1

Klenow pol = assay: Fe(II) mediated hydroxyl radical cleavage of Klenow pol; assay type: binding, Escherichia coli
Description: 2-4 microgram of purified recombinant Klenow pol fragment or mutant thereof, dialysed against buffer F (20 mM HEPES-KOH pH 7.0, 5 mM NaCl) on a Milipore “V” Series Membrane (Millipore) for 30 minutes at 4° C., was incubated for 30 minutes at 37° C. in 50 mM HEPES pH 7.0, 5 mM NaCl, 20 micromolar Fe(NH4)2SO4 and 10 mM DTT in total volume of 10 microliter. The incubations were stopped by the addition of 10 microliter of 2×SDS-loading buffer (100 mM Tris-HCl pH 6.8, 2% (w/v) SDS, 200 mM DTT, 16%(v/v) glycerol, 0.05%(w/v) bromolphenol blue and 50 mM EDTA). The amount of added Mg(II)-ions, Mn(II)-ions or aminoglycoside was as indicated. Reacted polypeptides were fractionated by 10% SDS-polyacrylamide gel electrophoresis and subsequently visualised by silver staining.

[9] = target: Bam HI restriction enzyme (Bacillus amyloliquefaciens, UniProt P23940); assay: In vitro inhibition of Bam HI restriction enzyme; assay type: biochemical; conditions: addition of 0.1-5 mM neomycin B
From the text: as §1

[10] = read-out: appKi (for KL pol), […], pH 7.0

Sequence of Escherichia coli Klenow polymerase (pol) (P00582 324-928 D355A/E357A): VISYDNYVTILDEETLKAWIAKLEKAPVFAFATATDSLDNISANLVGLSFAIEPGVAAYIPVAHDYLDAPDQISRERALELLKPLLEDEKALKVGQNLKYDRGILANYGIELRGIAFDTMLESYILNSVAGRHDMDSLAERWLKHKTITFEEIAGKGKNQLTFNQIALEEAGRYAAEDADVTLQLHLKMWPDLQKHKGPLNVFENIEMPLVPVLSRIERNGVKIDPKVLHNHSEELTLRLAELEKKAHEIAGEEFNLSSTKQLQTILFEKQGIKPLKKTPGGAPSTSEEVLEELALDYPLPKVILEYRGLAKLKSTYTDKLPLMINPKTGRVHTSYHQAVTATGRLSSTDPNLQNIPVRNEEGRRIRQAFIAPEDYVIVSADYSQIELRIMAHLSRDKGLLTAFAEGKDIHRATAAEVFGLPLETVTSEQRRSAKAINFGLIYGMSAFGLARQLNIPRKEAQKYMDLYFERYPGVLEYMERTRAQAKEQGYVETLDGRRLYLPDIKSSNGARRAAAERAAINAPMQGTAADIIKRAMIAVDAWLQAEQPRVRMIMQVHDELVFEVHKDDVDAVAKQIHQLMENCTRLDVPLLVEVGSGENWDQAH
Sequence of Taq DNA polymerase (P19821 whole entry): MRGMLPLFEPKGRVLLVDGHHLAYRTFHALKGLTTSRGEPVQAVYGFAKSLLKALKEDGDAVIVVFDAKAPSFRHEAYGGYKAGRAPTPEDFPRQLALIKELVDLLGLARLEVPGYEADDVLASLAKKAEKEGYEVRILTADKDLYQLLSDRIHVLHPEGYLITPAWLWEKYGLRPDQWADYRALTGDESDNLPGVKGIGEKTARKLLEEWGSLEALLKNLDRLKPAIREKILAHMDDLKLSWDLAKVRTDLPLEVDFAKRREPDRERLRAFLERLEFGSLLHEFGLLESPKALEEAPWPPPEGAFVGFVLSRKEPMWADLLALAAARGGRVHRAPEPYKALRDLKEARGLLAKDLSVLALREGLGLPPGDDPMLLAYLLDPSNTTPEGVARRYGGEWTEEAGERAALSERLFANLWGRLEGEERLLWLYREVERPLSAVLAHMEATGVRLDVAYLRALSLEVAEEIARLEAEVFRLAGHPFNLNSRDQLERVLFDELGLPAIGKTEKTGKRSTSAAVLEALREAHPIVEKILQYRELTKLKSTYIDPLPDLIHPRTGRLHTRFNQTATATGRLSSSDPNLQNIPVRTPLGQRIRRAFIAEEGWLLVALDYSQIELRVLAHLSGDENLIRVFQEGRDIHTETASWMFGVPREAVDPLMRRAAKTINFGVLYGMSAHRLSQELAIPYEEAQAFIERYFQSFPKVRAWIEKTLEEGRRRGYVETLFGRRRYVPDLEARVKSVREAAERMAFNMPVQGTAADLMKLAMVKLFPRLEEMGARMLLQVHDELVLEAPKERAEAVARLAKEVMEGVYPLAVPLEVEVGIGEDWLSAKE
Sequence of Bam HI restriction enzyme (P23940 whole entry): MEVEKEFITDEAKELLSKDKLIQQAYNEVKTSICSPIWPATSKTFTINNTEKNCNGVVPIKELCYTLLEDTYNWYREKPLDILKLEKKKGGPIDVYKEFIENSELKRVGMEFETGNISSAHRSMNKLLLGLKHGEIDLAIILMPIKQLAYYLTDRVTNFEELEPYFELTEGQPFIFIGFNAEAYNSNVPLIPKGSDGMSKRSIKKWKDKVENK
Sequence of mammalian poly(A) polymerase (P51003 whole entry): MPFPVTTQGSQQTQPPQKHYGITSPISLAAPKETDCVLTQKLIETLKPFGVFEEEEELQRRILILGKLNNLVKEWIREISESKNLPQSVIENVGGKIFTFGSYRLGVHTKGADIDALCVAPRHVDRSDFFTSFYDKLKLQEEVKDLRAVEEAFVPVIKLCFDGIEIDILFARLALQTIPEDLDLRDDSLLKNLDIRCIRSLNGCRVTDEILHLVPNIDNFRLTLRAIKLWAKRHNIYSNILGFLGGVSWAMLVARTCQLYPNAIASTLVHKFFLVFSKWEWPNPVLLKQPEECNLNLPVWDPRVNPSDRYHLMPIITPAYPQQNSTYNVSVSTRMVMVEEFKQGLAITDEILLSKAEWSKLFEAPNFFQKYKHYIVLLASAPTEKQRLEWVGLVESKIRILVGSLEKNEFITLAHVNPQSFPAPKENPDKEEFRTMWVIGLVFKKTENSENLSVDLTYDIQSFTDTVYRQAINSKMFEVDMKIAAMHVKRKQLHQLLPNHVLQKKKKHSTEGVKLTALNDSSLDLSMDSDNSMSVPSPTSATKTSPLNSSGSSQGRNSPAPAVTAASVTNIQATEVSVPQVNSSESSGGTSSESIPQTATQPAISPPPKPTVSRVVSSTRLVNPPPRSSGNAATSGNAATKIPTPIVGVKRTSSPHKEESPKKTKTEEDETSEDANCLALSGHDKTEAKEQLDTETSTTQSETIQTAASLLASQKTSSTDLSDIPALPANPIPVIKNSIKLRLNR
Sequence of T7 RNA polymerase (P00573 whole entry): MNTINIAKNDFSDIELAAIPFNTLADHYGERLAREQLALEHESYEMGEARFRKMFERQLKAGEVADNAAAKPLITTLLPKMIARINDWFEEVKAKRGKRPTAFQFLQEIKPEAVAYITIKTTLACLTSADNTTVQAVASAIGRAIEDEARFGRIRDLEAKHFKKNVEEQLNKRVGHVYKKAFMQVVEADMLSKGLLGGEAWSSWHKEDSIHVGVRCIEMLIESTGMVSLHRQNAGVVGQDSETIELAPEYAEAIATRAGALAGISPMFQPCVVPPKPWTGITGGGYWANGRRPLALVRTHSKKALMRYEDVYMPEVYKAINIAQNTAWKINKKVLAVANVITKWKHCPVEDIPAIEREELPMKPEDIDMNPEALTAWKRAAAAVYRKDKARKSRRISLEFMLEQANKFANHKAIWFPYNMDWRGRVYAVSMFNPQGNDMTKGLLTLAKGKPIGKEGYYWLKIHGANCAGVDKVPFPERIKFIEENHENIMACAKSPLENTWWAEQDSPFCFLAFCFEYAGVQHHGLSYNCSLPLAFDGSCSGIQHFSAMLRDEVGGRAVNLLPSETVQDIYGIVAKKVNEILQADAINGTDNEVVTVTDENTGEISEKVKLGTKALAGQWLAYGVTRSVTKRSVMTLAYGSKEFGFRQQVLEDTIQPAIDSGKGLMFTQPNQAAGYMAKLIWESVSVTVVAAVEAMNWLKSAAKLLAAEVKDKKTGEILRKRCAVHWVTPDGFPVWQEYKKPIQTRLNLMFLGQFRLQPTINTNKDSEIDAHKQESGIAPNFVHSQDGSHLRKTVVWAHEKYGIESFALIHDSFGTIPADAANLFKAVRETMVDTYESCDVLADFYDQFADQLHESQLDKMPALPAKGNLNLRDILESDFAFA
Sequence of bacterial RNase H (P0A7Y4 whole entry): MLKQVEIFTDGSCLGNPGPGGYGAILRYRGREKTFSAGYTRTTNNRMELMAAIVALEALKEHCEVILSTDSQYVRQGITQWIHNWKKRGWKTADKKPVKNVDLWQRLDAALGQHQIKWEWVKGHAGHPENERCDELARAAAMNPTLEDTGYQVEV

With `CN[C@@H]1[C@@H](O)[C@@H](O[C@@H]2[C@H](O)[C@H](O[C@H]3OC(CN)=CC[C@H]3N)[C@@H](N)C[C@H]2N)OC[C@]1(C)O` [5-epi-Sisomicin] the IC50 (RNase P RNA [1]) was roughly 3 µM and the IC50 [2] was 1.2 µM.
For `NC[C@H]1O[C@H](O[C@H]2[C@H](O)[C@@H](O[C@H]3O[C@H](CO)[C@@H](O)[C@H](N)[C@H]3O)[C@H](N)C[C@@H]2N)[C@H](O)[C@@H](O)[C@@H]1O` [Kanamycin A], the IC50 [3, 10] was 14300 ± 1700 µM.
In the case of `NC[C@H]1O[C@H](O[C@H]2[C@H](O)[C@@H](O[C@H]3O[C@H](CO)[C@@H](O)[C@H](N)[C@H]3O)[C@H](N)C[C@@H]2N)[C@H](N)[C@@H](O)[C@@H]1O` [Kanamycin B], the IC50 [3, 10] is reported as 9200 ± 300 µM and the IC50 [4] is reported as 7.3 ± 0.4 µM.
Work on `NC[C@@H]1O[C@H](O[C@H]2[C@@H](O)[C@H](O[C@@H]3[C@@H](O)[C@H](N)C[C@H](N)[C@H]3O[C@H]3O[C@H](CO)[C@@H](O)C[C@H]3N)O[C@@H]2CO)[C@H](N)[C@@H](O)[C@@H]1O[C@H]1O[C@H](CO)[C@@H](O)[C@H](O)[C@@H]1O` [Lividomycin] yielded an IC50 [3] of 11600 ± 2000 µM and an IC50 [4] of 18.7 ± 2.8 µM.
For `NC[C@@H]1O[C@H](O[C@H]2[C@@H](O)[C@H](O[C@@H]3[C@@H](O)[C@H](N)C[C@H](N)[C@H]3O[C@H]3O[C@H](CN)[C@@H](O)[C@H](O)[C@H]3N)O[C@@H]2CO)[C@H](N)[C@@H](O)[C@@H]1O` [Neomycin B], the “effect on iron mediated cleavage at the active site” value (PARN) was “interfered with iron mediated cleavage”, the “inhibition of Taq DNA polymerase” value (Taq DNA polymerase) was “can be inhibited” and the “inhibition of mammalian poly(A) polymerase” value [5] was “can be inhibited”. The “inhibition of T7 RNA polymerase” value (T7 RNA polymerase) was “can be inhibited”, the IC50 (RNase P RNA [6]) was 35 ± 12 µM and the “mode of inhibition (enzyme kinetic analyses)” value ([3]; Klenow pol) was “mixed non-competitive inhibitor”. For the same compound, the “pH dependence of inhibition” value ([3]; Klenow pol) was “pH dependent”, the IC50 [3, 10] was 4800 ± 300 µM and the “inhibition of HIV reverse transcriptase” value [7] was “can be inhibited”. The IC50 [2] was 40 µM, the “mode of inhibition (enzyme kinetic analyses)” value ([4]; PARN) was “mixed non-competitive inhibitor” and the “pH dependence of inhibition” value ([4]; PARN) was “pH dependent”. For the same compound, the IC50 [4] was 0.4 ± 0.1 µM, the “inhibition of Pb2+-induced cleavage of E. coli RNase P RNA” value [8] was “inhibited” and the “inhibition of bacterial RNase H” value (bacterial RNase H) was “can be inhibited”. The “effect on iron mediated cleavage at the active site” value (Klenow pol) was “interfered with iron mediated cleavage” and the “inhibition of Bam HI restriction enzyme” value [9] was “can be inhibited”.
For `NC[C@@H]1O[C@H](O[C@H]2[C@@H](O)[C@H](O[C@@H]3[C@@H](O)[C@H](N)C[C@H](N)[C@H]3O[C@H]3O[C@H](CO)[C@@H](O)[C@H](O)[C@H]3N)O[C@@H]2CO)[C@H](N)[C@@H](O)[C@@H]1O` [Paromomycin], the IC50 (RNase P RNA [6]) is given as 190 ± 12 µM, the IC50 [3] is given as 10300 ± 800 µM and the IC50 [2] is given as 340 µM. For the same compound, the IC50 [4] was 17.3 ± 3.5 µM.
Work on `CN[C@@H]1[C@@H](O)[C@@H](O[C@@H]2[C@@H](O)[C@H](O[C@H]3OC(CN)=CC[C@H]3N)[C@@H](N)C[C@H]2N)OC[C@]1(C)O` [Sisomicin] yielded an IC50 [2] of 17 µM.
For `NC[C@H]1O[C@H](O[C@H]2[C@H](O)[C@@H](O[C@H]3O[C@H](CO)[C@@H](O)[C@H](N)[C@H]3O)[C@H](N)C[C@@H]2N)[C@H](N)C[C@@H]1O` [Tobramycin], the IC50 [3] was 9300 ± 700 µM and the IC50 [4] was 7.1 ± 0.2 µM.
